Patent US20240391931A1 (Bristol-Myers Squibb Company, priority 2021, published 2024)

Tests used:
HER2YVMA = HER2YVMA (Homo sapiens, UniProt P04626, INS775YVMA); experiment: Enzymatic assay HER2YVMA (method b); format: biochemical; design: purchased Viva biotech, Shanghai, China custom purification; conditions: [HER2YVMA]=5 nM, [ATP]=25 μM, [Peptide 22]=1 μM
In short: (§1)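 Initial rates over 0–3600 s, read as substrate-to-product conversion by capillary electrophoresis, were converted to percent inhibition and fitted with a variable-slope curve to give IC50. Conditions: EGFR WT 2 nM with 1 mM ATP; HER2 YVMA 5 nM or HER2 WT 12.5 nM, each with 25 μM ATP. All used 1 μM Peptide 22 in pH 7.5 HEPES/Mn/Mg buffer.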

EGFR = EGFR (Homo sapiens, UniProt P00533); experiment: EGFR signaling (pEGFR Tyr1068/total EGFR MSD) in A431 cells; format: cell-based; design: endogenous in cells; host or cells: A431, N87; conditions: for EC50: A431 cells, read-out: A431 pEGFR EC50; for Selectivity A431 EC50/BT474 EC50: ratio A431 pEGFR EC50 to BT474 pHER2 EC50; for Selectivity A431 EC50/HEKYVMA EC50: ratio A431 pEGFR EC50 to HEK YVMA pHER2 EC50
Chain of EGFR (P00533 25-1210): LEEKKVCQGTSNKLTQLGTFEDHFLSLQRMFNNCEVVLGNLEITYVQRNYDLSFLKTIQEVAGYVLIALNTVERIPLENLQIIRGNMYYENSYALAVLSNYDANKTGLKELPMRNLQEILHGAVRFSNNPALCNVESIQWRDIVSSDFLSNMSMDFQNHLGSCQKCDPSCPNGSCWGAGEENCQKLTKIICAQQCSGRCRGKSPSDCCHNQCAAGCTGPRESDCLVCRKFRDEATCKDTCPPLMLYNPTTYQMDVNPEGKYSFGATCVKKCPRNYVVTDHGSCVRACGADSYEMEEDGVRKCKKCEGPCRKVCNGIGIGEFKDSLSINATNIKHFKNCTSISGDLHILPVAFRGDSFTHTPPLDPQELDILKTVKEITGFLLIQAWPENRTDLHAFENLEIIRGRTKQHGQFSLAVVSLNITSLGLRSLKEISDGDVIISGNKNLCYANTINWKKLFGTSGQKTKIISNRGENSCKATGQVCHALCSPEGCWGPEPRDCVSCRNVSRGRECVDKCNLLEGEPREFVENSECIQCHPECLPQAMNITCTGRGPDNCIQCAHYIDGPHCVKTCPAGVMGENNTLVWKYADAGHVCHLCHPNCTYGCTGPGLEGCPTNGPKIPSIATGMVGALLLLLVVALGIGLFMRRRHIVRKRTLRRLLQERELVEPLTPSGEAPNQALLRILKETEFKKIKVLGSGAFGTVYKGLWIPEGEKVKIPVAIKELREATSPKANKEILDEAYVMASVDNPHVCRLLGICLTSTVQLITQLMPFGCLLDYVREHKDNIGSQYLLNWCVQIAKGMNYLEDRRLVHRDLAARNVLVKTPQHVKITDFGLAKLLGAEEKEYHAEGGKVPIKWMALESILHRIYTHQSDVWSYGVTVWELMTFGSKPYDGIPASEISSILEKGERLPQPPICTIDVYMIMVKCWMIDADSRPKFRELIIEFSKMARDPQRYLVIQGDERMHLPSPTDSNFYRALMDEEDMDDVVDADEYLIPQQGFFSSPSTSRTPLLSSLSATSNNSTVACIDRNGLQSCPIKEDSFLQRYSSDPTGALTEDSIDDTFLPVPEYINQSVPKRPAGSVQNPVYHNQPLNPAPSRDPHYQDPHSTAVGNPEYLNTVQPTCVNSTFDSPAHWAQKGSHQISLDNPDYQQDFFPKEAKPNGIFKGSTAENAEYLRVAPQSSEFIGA
In short: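 EC50 was fitted with variable Hill slope from MSD pTyr1068/total EGFR ratios, expressed as % DMSO control. A431 cells were starved overnight, then exposed 1.5 h to eight concentrations from 10 to 0.005 μM in 1% FBS before a 10-min 100 ng/mL EGF pulse.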

EGFR WT = target: T1, EGFR WT (Homo sapiens, UniProt P00533); experiment: Enzymatic assay EGFR WT (method c); format: biochemical; conditions: [EGFR WT]=2 nM, [ATP]=1 mM, [Peptide 22]=1 μM
T1 construct: purchased Thermo Fisher, Carlsbad, CA ERBB1 PR7295B
T1 sequence (P00533 25-1210): as above
In short: as §1

HER2 WT = target: T2, HER2 WT (Homo sapiens, UniProt P04626); experiment: Enzymatic assay HER2 WT (method a); format: biochemical; conditions: [HER2 WT]=12.5 nM, [ATP]=25 μM, [Peptide 22]=1 μM
T2 construct: purchased ProQinase, Freiburg, Germany ERBB2 0108-0000-1
T2 sequence (P04626 23-1255): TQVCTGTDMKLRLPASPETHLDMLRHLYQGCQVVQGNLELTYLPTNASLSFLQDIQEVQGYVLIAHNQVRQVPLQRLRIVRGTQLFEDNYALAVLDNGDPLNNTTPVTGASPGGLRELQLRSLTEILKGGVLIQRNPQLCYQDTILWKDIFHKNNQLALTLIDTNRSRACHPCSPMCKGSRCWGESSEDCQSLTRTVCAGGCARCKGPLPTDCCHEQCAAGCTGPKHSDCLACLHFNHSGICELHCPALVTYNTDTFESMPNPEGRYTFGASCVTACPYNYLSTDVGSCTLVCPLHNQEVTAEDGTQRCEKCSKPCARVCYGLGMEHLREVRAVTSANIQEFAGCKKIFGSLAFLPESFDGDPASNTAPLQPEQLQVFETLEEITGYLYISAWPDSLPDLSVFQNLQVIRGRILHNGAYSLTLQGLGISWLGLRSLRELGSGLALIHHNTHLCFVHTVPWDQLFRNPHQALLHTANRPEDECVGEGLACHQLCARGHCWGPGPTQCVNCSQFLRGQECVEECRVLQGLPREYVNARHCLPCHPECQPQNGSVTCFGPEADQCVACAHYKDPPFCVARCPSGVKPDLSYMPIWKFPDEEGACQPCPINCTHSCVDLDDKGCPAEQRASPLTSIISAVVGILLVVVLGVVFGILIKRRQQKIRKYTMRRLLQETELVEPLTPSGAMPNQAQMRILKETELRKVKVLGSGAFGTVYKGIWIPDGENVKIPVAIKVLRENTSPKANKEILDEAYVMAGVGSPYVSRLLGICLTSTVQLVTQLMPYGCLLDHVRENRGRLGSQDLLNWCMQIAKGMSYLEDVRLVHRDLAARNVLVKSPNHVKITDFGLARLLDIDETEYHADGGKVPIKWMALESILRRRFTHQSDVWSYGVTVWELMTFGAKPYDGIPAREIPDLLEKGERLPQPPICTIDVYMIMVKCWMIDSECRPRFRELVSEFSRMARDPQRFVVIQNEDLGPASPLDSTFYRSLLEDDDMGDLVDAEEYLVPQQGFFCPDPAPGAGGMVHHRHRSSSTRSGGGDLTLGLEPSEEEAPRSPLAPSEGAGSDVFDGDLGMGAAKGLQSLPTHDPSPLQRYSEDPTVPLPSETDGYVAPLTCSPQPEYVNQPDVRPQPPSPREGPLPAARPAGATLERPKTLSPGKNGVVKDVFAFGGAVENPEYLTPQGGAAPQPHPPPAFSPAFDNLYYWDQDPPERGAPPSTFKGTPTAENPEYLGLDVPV
In short: as §1

Chain of HER2YVMA (P04626 with tags, fused parts or gaps INS775YVMA): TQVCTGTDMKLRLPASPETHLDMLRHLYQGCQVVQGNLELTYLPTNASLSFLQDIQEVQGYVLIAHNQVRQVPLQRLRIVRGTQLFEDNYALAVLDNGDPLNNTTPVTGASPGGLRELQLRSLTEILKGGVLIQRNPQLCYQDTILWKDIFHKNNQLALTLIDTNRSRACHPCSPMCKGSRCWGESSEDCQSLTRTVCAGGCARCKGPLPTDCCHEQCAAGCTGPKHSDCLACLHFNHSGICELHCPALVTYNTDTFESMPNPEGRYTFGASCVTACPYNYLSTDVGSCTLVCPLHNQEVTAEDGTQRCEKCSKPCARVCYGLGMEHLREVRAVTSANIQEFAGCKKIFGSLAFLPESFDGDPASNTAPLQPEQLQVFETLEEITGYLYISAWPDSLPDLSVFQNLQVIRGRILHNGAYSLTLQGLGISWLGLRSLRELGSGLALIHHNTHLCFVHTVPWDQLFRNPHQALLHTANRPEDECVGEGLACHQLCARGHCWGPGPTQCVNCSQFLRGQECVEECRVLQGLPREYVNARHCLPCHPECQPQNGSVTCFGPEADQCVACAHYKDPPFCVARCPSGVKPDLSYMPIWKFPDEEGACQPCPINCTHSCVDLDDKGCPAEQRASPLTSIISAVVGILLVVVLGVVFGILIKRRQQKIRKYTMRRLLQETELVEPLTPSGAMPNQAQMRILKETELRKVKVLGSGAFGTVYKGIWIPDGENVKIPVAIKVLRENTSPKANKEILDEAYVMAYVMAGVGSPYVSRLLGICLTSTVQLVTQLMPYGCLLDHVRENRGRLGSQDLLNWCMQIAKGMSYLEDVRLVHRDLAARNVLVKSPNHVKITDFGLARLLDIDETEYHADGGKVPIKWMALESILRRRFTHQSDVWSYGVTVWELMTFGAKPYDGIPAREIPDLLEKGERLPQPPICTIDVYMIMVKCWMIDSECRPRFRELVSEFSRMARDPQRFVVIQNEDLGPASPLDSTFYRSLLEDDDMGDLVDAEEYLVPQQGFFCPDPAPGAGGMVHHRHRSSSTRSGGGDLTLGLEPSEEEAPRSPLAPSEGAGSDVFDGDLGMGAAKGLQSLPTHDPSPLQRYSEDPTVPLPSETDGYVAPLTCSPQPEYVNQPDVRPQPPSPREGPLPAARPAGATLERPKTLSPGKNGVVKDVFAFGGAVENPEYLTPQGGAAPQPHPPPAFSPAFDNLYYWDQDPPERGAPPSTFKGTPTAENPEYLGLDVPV

Row | SMILES | IC50 (HER2YVMA) | EC50 (EGFR) | Selectivity A431 EC50/BT474 EC50 (EGFR) | Selectivity A431 EC50/HEKYVMA EC50 (EGFR) | IC50 (EGFR WT) | IC50 (HER2 WT)
1 | CCN(CC)C/C=C/C(=O)N1CCc2c(sc3ncnc(Nc4ccc(Oc5ccc(C)nc5)c(C)c4)c23)C1 [Compound 131] | < 100 nM | < 100 nM | C (C: ≥ 10 and < 20) | D (D: ≥ 5 and < 10) | 1 to 10 µM | < 100 nM
2 | Cc1ccc(Oc2ccc(Nc3ncnc4sc5c(c34)CCN(C(=O)/C=C/CN3CCCC(c4nccs4)C3)C5)cc2C)cn1 (stereo not drawn) [Compound 113] | < 100 nM | 100 to 1000 nM | B (B: ≥ 20 and < 100) | C (C: ≥ 10 and < 20) | > 10 µM | < 100 nM
3 | Cc1ccc(Oc2ccc(Nc3ncnc4sc5c(c34)CCN(C(=O)/C=C/CN3CC4(CCCC4)C3)C5)cc2C)cn1 [Compound 123] | < 100 nM | 100 to 1000 nM | C (C: ≥ 10 and < 20) | D (D: ≥ 5 and < 10) | > 10 µM | < 100 nM
4 | Cc1ccc(Oc2ccc(Nc3ncnc4sc5c(c34)CCN(C(=O)/C=C/CN3CC(C)OC(C)C3C)C5)cc2C)cn1 (stereo not drawn) [Compound 117] | < 100 nM | 100 to 1000 nM | B (B: ≥ 20 and < 100) | B (B: ≥ 20 and < 100) | > 10 µM | < 100 nM
5 | Cc1ccc(Oc2ccc(Nc3ncnc4sc5c(c34)C[C@@H](C)N(C(=O)/C=C/CN(C)C)[C@@H]5C)cc2C)cn1 (racemic) [Compound 165, (E)-1-(6,8-trans-dimethyl-4-((3-methyl-4-((6-methylpyridin-3-yl)oxy)phenyl)amino)-5,8-dihydropyrido[4′,3′:4,5]thieno[2,3-d]pyrimidin-7(6H)-yl)-4-(dimethylamino)but-2-en-1-one] | 100 to 1000 nM | 1000 to 10000 nM | B (B: ≥ 20 and < 100) | D (D: ≥ 5 and < 10) | > 10 µM | 100 to 1000 nM
6 | Cc1ccc(Oc2ccc(Nc3ncnc4sc5c(c34)CCN(C(=O)/C=C/CN3CCO[C@H](CO)C3)C5)cc2C)cn1 [Compound 136] | < 100 nM | 100 to 1000 nM | B (B: ≥ 20 and < 100) | C (C: ≥ 10 and < 20) | > 10 µM | < 100 nM
7 | Cc1ccc(Oc2ccc(Nc3ncnc4sc5c(c34)CCN(C(=O)/C=C/CN3CCCC34CCC4)C5)cc2C)cn1 [Compound 115] | < 100 nM | 100 to 1000 nM | C (C: ≥ 10 and < 20) | D (D: ≥ 5 and < 10) | > 10 µM | < 100 nM
8 | Cc1ccc(Oc2ccc(Nc3ncnc4sc5c(c34)CN(C(=O)/C=C/CN(C)C)CC5)cc2C)cn1 [Compound 108, (E)-4-(Dimethylamino)-1-(4-((3-methyl-4-((6-methylpyridin-3-yl)oxy)phenyl)amino)-7,8-dihydropyrido[3′,4′:4,5]thieno[2,3-d]pyrimidin-6(5H)-yl)but-2-en-1-one] | < 100 nM | < 100 nM | C (C: ≥ 10 and < 20) | C (C: ≥ 10 and < 20) | > 10 µM | < 100 nM
9 | Cc1ccc(Oc2ccc(Nc3ncnc4sc5c(c34)CCN(C(=O)/C=C/CN3CCCC(F)(CO)C3)C5)cc2C)cn1 (stereo not drawn) [Compound 150] | < 100 nM | 100 to 1000 nM | B (B: ≥ 20 and < 100) | E (E: >1 and < 5) | 1 to 10 µM | < 100 nM
10 | Cc1ccc(Oc2ccc(Nc3ncnc4sc5c(c34)C[C@@H](C)N(C(=O)/C=C/CN(C)C)[C@H]5C)cc2C)cn1 (racemic) [Compound 149, (E)-1-(6,8-cis-dimethyl-4-((3-methyl-4-((6-methylpyridin-3-yl)oxy)phenyl)amino)-5,8-dihydropyrido[4′,3′:4,5]thieno[2,3-d]pyrimidin-7(6H)-yl)-4-(dimethylamino)but-2-en-1-one] | < 100 nM | 100 to 1000 nM | B (B: ≥ 20 and < 100) | D (D: ≥ 5 and < 10) | > 10 µM | < 100 nM
11 | Cc1ccc(Oc2ccc(Nc3ncnc4sc5c(c34)CCN(C(=O)/C=C/CN3CC[C@H](CO)C3)C5)cc2C)cn1 [Compound 133] | < 100 nM | 100 to 1000 nM | B (B: ≥ 20 and < 100) | C (C: ≥ 10 and < 20) | > 10 µM | < 100 nM
12 | Cc1ccc(Oc2ccc(Nc3ncnc4sc5c(c34)C(C)N(C(=O)C=CCN(C)C)C5)cc2C)cn1 (single isomer, unassigned) [Compound 148] | 1000 to 10000 nM | > 10000 nM | B (B: ≥ 20 and < 100) | C (C: ≥ 10 and < 20) | > 10 µM | 1000 to 10000 nM
13 | C=CC(=O)N1Cc2sc3ncnc(Nc4ccc(Oc5ccc(C)nc5)c(C)c4)c3c2C(C)C1 (single isomer, unassigned) [Compound 145] | < 100 nM | 100 to 1000 nM | C (C: ≥ 10 and < 20) | E (E: >1 and < 5) | > 10 µM | < 100 nM
14 | Cc1cc(Nc2ncnc3sc4c(c23)CN(C(=O)/C=C/CN(C)C)C4)ccc1Oc1ccc2ncnn2c1 [Compound 111, (E)-1-(4-((4-([1,2,4]Triazolo[1,5-a]pyridin-6-yloxy)-3-methylphenyl)amino)-5H-pyrrolo[3′,4′:4,5]thieno[2,3-d]pyrimidin-6(7H)-yl)-4-(dimethylamino)but-2-en-1-one] | < 100 nM | 1000 to 10000 nM | A (A: ≥100) | B (B: ≥ 20 and < 100) | > 10 µM | < 100 nM
15 | Cc1cc(Nc2ncnc3sc4c(c23)CCN(C(=O)/C=C/CN(C)C)C4)ccc1Oc1ccc2nccn2c1 [Compound 109, (E)-4-(dimethylamino)-1-(4-((4-(imidazo[1,2-a]pyridin-6-yloxy)-3-methylphenyl)amino)-5,6-dihydropyrido[4′,3′:4,5]thieno[2,3-d]pyrimidin-7(8H)-yl)but-2-en-1-one] | < 100 nM | 100 to 1000 nM | D (D: ≥ 5 and < 10) | E (E: >1 and < 5) | > 10 µM | 100 to 1000 nM
16 | COc1cc(Nc2ncnc3sc4c(c23)CCN(C(=O)/C=C/CN(C)C)C4)ccc1Oc1ccccc1 [Compound 7, (E)-4-(dimethylamino)-1-(4-((3-methoxy-4-phenoxyphenyl)amino)-5,8-dihydropyrido[4′,3′:4,5]thieno[2,3-d]pyrimidin-7(6H)-yl)but-2-en-1-one] | < 100 nM | < 100 nM | D (D: ≥ 5 and < 10) | F (F: < 1) | > 10 µM | < 100 nM
17 | COc1ccc(Oc2ccc(Nc3ncnc4sc5c(c34)CCN(C(=O)/C=C/CN(C)C)CC5)cc2C)cn1 [Compound 173, (E)-4-(Dimethylamino)-1-(4-((4-((6-methoxypyridin-3-yl)oxy)-3-methylphenyl)amino)-8,9-dihydro-5H-pyrimido[5′,4′:4,5]thieno[2,3-d]azepin-7(6H)-yl)but-2-en-1-one] | 100 to 1000 nM | 1000 to 10000 nM | B (B: ≥ 20 and < 100) | C (C: ≥ 10 and < 20) | > 10 µM | 100 to 1000 nM
